Measured values reported in patent publication US12577255B2, “MDM2-based modulators of proteolysis and associated methods of use” (Arvinas Operations, Inc., priority 2015, dated 2026).

Experiments:
[1] = test system: c-Jun N-terminal kinases (JNK); assay: JNK Western blot assay (degradation); format: cell-based; settings: at 1 μM; 16 h
Experimental: (§1) The following biological assays were performed to evaluate the protein degradation in various cell types using representative compounds disclosed. The degradation of the following proteins were evaluated: bromodomain-containing protein 4 (BRD4), androgen receptor (AR), c-Myc, c-Jun N-terminal kinases (JNK), and enhancer of zeste homolog 2 (EZH2).
Cells were purchased from ATCC and cultured in Dulbecco's Modified Eagle's Medium (ATCC), supplemented with 10% FBS (ATCC) and Penicillin/Streptomycin (Life Technologies). […] Cells were harvested, and lysed in RIPA buffer (50 mM Tris pH8, 150 mM NaCl, 1% Tx-100, 0.1% SDS, 0.5% sodium deoxycholate) supplemented with protease and phosphatase inhibitors. Lysates were clarified at 16,000 g for 10 minutes, and protein concentration was determined. Equal amount of protein (20 μg) was subjected to SDS-PAGE analysis and followed by immunoblotting according to standard protocols.

MDM2 = target: T1, MDM2 (Homo sapiens, UniProt Q00987); assay: Western blot of HCT116 cells, MDM2 level; format: cell-based; settings: Western blot (FIG. 2, FIG. 3)
T1 construct: Western blot of HCT116 cells treated with chimeric molecules; endogenous in cells; host or cells: HCT116

[2] = target: T2, bromodomain-containing protein 4 (BRD4) (Homo sapiens, UniProt O60885); assay: BRD4 Western blot (degradation); format: cell-based; settings: at 1 μM; VCaP cells, 16 h
T2 construct: VCaP cells were chased from ATCC and cultured in Dulbecco's Modified Eagle's Medium; host or cells: VCaP
Experimental: as §1
VCaP cells were chased from ATCC and cultured in Dulbecco's Modified Eagle's Medium (ATCC), supplemented with 10% FBS (ATCC) and Penicillin/Streptomycin (Life Technologies). DMSO control and compound treatments (0.03 μM to 1 μM) were performed in 12-well plates for 16 h. cells were harvested, and lysed in RIPA buffer (50 mM Tris pH8, 150 mM NaCl, 1% Tx-100, 0.1% SDS, 0.5% sodium deoxycholate) supplemented with protease and phosphatase inhibitors. Lysates were clarified at 16,000 g for 10 minutes, and protein concentration was determined. Equal amount of protein (20 μg) was subjected to SDS-PAGE analysis and followed by immunoblotting according to standard protocols. The antibodies used were BRD4 (Cell signaling #13440), and Actin (Sigma #5441). Detection reagents were Clarity Western ELC substrate (Bio-rad #170-5060).

p53 = assay: Western blot of HCT116 cells, p53 level; format: cell-based, human; settings: Western blot (FIG. 2, FIG. 3)

T1 sequence (Q00987 whole entry): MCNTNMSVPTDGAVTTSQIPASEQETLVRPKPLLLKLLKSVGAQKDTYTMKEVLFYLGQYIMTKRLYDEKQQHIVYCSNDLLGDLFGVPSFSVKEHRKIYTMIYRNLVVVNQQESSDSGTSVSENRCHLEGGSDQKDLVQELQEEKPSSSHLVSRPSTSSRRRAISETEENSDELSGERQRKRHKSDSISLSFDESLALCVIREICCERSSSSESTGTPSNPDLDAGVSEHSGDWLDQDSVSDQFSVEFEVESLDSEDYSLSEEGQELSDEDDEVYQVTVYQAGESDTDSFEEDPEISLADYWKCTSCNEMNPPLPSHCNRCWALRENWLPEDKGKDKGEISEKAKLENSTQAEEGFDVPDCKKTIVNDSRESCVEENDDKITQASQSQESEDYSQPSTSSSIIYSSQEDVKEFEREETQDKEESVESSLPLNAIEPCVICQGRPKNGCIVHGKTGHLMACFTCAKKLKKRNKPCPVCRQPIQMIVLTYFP

COc1cc(C(=O)NCCOCCO[C@H]2CC[C@H](Nc3nccc(-c4cnn(Cc5ccccc5)c4N(C)C)n3)CC2)ccc1NC(=O)C1N[C@@H](CC(C)(C)C)[C@](C#N)(c2ccc(Cl)cc2F)[C@H]1c1cccc(Cl)c1F (stereo partly drawn) [Compound A2720, 3-(3-chloro-2-fluorophenyl)-4-(4-chloro-2-fluorophenyl)-4-cyano-5-(2,2-dimethylpropyl)-N-(2-methoxy-4-{[2-(2-{[(1,4-trans)-4-({4-[1-benzyl-5-(dimethylamino)-1H-pyrazol-4-yl]pyrimidin-2-yl}amino)cyclohexyl]oxy}ethoxy)ethyl]carbamoyl}phenyl)pyrrolidine-2-carboxamide]
Degradation activity JNK [1]: A (0 to 25% degradation at 1 μM)

COc1ccc(C(=O)NCCOCCOCCO[C@H]2CC[C@H](Nc3nccc(-c4cnn(Cc5ccccc5)c4N(C)C)n3)CC2)cc1NC(=O)C1N[C@@H](CC(C)(C)C)[C@](C#N)(c2ccc(Cl)cc2F)[C@H]1c1cccc(Cl)c1F (stereo partly drawn) [Compound A2766, 3-(3-chloro-2-fluorophenyl)-4-(4-chloro-2-fluorophenyl)-4-cyano-5-(2,2-dimethylpropyl)-N-[2-methoxy-5-({2-[2-(2-{[(1,4-trans)-4-({4-[1-benzyl-5-(dimethylamino)-1H-pyrazol-4-yl]pyrimidin-2-yl}amino)cyclohexyl]oxy}ethoxy)ethoxy]ethyl}carbamoyl)phenyl]pyrrolidine-2-carboxamide]
Degradation activity JNK [1]: A (0 to 25% degradation at 1 μM)

COc1cc(C(=O)NCCOCCOCCOCCO[C@H]2CC[C@H](Nc3nccc(-c4cnn(Cc5ccccc5)c4N(C)C)n3)CC2)ccc1NC(=O)C1N[C@@H](CC(C)(C)C)[C@](C#N)(c2ccc(Cl)cc2F)[C@H]1c1cccc(Cl)c1F (stereo partly drawn) [Compound A2791, 3-(3-chloro-2-fluorophenyl)-4-(4-chloro-2-fluorophenyl)-4-cyano-5-(2,2-dimethylpropyl)-N-[2-methoxy-4-({1-[(1,4-trans)-4-({4-[1-benzyl-5-(dimethylamino)-1H-pyrazol-4-yl]pyrimidin-2-yl}amino)cyclohexyl]-1,4,7,10-tetraoxadodecan-12-yl}carbamoyl)phenyl]pyrrolidine-2-carboxamide]
Degradation activity JNK [1]: A (0 to 25% degradation at 1 μM)

COc1cc(C(=O)NCCOCCOCCNC(=O)C[C@@H]2N=C(c3ccc(Cl)cc3)c3c(sc(C)c3C)-n3c(C)nnc32)ccc1NC(=O)[C@@H]1N[C@@H](CC(C)(C)C)[C@](C#N)(c2ccc(Cl)cc2F)[C@H]1c1cccc(Cl)c1F [Compound A1864, (2R,3S,4R,5S)-3-(3-chloro-2-fluorophenyl)-4-(4-chloro-2-fluorophenyl)-N-[4-({2-[2-(2-{2-[(9S)-7-(4-chlorophenyl)-4,5,13-trimethyl-3-thia-1,8,11,12-tetraazatricyclo-[8.3.0.0^2,^6]trideca-2(6),4,7,10,12-pentaen-9-yl]acetamido}ethoxy)ethoxy]ethyl}-carbamoyl)-2-methoxyphenyl]-4-cyano-5-(2,2-dimethylpropyl)pyrrolidine-2-carboxamide]
MDM2 up-regulation (MDM2): up-regulation of MDM2
Degradation activity BRD4 [2]: B (25 to 50% degradation at 1 μM)
p53 level increase (p53): dose dependent p53 level increase

COc1cc(C(=O)NCCOCCNC(=O)C[C@@H]2N=C(c3ccc(Cl)cc3)c3c(sc(C)c3C)-n3c(C)nnc32)ccc1NC(=O)[C@@H]1N[C@@H](CC(C)(C)C)[C@](C#N)(c2ccc(Cl)cc2F)[C@H]1c1cccc(Cl)c1F [Compound A1892, (2R,3S,4R,5S)-3-(3-chloro-2-fluorophenyl)-4-(4-chloro-2-fluorophenyl)-N-(4-{[2-(2-{2-[(9S)-7-(4-chlorophenyl)-4,5,13-trimethyl-3-thia-1,8,11,12-tetraazatricyclo[8.3.0.0^2,^6]-trideca-2(6),4,7,10,12-pentaen-9-yl]acetamido}ethoxy)ethyl]carbamoyl}-2-methoxyphenyl)-4-cyano-5-(2,2-dimethylpropyl)pyrrolidine-2-carboxamide]
MDM2 up-regulation (MDM2): up-regulation of MDM2
Degradation activity BRD4 [2]: C (larger than 50% degradation at 1 μM)
p53 level increase (p53): dose dependent p53 level increase
